Data set [1] addresses T1, hmGluR5 (Homo sapiens, UniProt P41594).
T1 construct: expressed in transfected cells
The data set is described as follows: Inhibition of quisqualate-induced inositol phosphate turnover in hmGluR5 expressing cells. It is filed as cell-based. To be noted: agonist quisqualate, read-out: IC50 concentration, inhibition of quisqualate-induced inositol phosphate turnover. From the text: This can be determined in vitro for example at recombinant human metabotropic glutamate receptors, especially PLC-coupled subtypes thereof such as mGluR5, using different procedures like, for example, measurement of the inhibition of the agonist induced elevation of intracellular Ca^2+ concentration in accordance with L. P. Daggett et al., Neuropharm. Vol. 34, pages 871-886 (1995), P. J. Flor et al., J. Neurochem. Vol. 67, pages 58-63 (1996) or by determination to what extent the agonist induced elevation of the inositol phosphate turnover is inhibited as described by T. Knoepfel et al., Eur. J. Pharmacol. Vol. 288, pages 389-392 (1994), L. P. Daggett et al., Neuropharm. Vol. 67, pages 58-63 (1996) and references cited therein. Isolation and expression of human mGluR subtypes are described in U.S. Pat. No. 5,521,297. Selected agents of the invention show IC50 values for the inhibition of the agonist (e.g. glutamate or quisqualate) induced elevation of intracellular Ca2+ concentration or the agonist (e.g. glutamate or quisqualate) induced inositol phosphate turnover, measured in recombinant cells expressing hmGluR5a of about 1 nM to about 50 μM.
4-(3-Chloro-phenylamino)-1-(3-chloro-phenylethynyl)-cyclohexanol inhibits the quisqualate-induced inositol phosphate turnover in hmGluR5 expressing cells with an IC50 concentration of 4000 nM.

T1 sequence (P41594 21-1180 isoform P41594-2 limits assumed): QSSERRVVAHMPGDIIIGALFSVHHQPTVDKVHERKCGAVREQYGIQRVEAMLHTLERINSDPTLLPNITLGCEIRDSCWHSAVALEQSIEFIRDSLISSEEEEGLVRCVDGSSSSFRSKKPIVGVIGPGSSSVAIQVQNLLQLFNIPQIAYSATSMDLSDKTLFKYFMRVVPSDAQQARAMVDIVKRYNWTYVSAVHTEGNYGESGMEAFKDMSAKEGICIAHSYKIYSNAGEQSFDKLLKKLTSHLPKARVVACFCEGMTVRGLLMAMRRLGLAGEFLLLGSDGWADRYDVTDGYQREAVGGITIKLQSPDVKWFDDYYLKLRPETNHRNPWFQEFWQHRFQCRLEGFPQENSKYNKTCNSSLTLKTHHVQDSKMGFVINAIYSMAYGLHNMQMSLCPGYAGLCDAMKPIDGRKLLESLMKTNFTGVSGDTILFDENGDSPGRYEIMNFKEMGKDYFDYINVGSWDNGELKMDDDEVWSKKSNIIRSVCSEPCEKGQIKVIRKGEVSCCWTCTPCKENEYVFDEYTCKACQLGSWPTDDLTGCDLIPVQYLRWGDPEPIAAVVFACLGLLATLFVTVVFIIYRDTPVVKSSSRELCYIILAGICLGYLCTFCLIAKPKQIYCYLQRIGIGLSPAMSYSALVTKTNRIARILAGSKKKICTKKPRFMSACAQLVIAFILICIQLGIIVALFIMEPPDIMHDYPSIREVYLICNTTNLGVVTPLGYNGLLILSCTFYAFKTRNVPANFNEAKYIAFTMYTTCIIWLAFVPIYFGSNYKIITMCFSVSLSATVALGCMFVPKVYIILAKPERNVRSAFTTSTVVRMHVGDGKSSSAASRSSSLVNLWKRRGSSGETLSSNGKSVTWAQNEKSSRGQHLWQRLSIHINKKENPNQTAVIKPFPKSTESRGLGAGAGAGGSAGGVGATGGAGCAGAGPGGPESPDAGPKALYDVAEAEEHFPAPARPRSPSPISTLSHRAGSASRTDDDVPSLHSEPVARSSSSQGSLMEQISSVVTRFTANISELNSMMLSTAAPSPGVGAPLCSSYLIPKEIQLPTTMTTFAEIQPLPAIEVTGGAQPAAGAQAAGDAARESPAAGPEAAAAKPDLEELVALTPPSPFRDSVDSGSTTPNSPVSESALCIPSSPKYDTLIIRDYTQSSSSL

In the case of `OC1(C#Cc2cccc(Cl)c2)CCC(Nc2cccc(Cl)c2)CC1` (centres unmarked) [Example 2.2, 4-(3-Chloro-phenylamino)-1-(3-chloro-phenylethynyl)-cyclohexanol], the IC50 in data set [1] is 4 µM.

For `OC1(C#Cc2cccc(Cl)c2)CCC(Nc2cc(Cl)cc(Cl)c2)CC1` (centres unmarked) [Example 2.6, 4-(3,5-Dichloro-phenylamino)-1-(3-chloro-phenylethynyl)-cyclohexanol], the melting point (as a rule, the temperature of the solid-liquid transition) was in the range of 145 to 149 °C.

These data come from patent publication US20080194551A1, “Acetylene Derivatives” (priority 2005, published 2008).
